Patent US10815221B2, “Crystal forms of an androgen receptor antagonist, preparation method and use thereof” (Crystal Pharmaceutical (Suzhou) Co., Ltd., priority 2016, dated 2020)
Converted amounts (≈) assume the structure as drawn. “Also recorded” adds a separate entry of the source.

Key:
Assay type in all cases: physicochemical
[1] = Storage stability of crystalline form (XRPD); settings: for Change of Solid Form: 3 months
Method: Samples of Form B were stored under different conditions of 25° C./60% RH (open), 40° C./75% RH (open) for 3 months, and XRPD was applied to test the crystalline form.
Samples of Form C were stored at 25° C./60% RH (open) for 1 month, and XRPD was applied to test the crystalline form.

[2] = Particle size distribution (laser particle size analyzer); settings: for D10 / D50 / D90 / MV (average particle size by volume): wet process, Isopar G
Method: The particle size distribution test in the present disclosure is acquired by the S3500 laser particle size analyzer of Microtrac. Microtrac S3500 is equipped with the SDC (Sample Delivery Controller). The test is carried out by wet process, and the dispersion medium is Isopar G. The parameters are as follows:
The particle size distribution of Form B in the present disclosure and Form I disclosed in WO2016120530A1 were tested.

[3] = Hygroscopicity by dynamic vapor sorption (DVS); settings: for Hygroscopicity / Weight gain under 80% RH: DVS, 80% RH; for Solid Form after DVS: XRPD after DVS test
Method: Dynamic vapor sorption (DVS) was applied to test hygroscopicity of Form B, Form C and crystalline form I in the prior art with about 10 mg of samples. The DVS plot of Form B is substantially as depicted in FIG. 10 and the XRPD pattern overlay before and after DVS test of Form B is substantially as depicted in FIG. 11. The DVS plot of Form C is substantially as depicted in FIG. 12 and the XRPD pattern overlay before and after DVS test of Form C is substantially as depicted in FIG. 13. The DVS plot of crystalline form I in the prior art is substantially as depicted in FIG. 14.

[4] = Solubility in SGF, FeSSIF and FaSSIF by HPLC
Method: High Performance Liquid Chromatography (HPLC) data in the present disclosure are collected from Agilent 1260 with diode array detector (DAD).
The HPLC method parameters for solubility in the present disclosure are as follows:
1. Column: Agilent Infinity Lab Poroshell 120 EC-C18 150*3.0 mm, 2.7 μm
2. Mobile Phase: A: 25 mmol/L KH2PO4 aqueous solution
3. Flow rate: 0.7 mL/min 4. Injection Volume: 5 μL 5. Detection wavelength: 220 nm 6. Column Temperature: 40° C. 7. Diluent: Acetonitrile/H2O (v/v, 1/1)
(§1) Samples of Form B in the present disclosure and crystalline form I disclosed in WO2016120530A1 were suspended into SGF (simulated gastric fluids, pH=1.8), FeSSIF (Fed state simulated intestinal fluids, pH=5.0) and FaSSIF (Fasted state simulated intestinal fluids, pH=6.5) to get saturated solutions. After equilibrated for 1 hour and 4 hours, concentrations of the saturated solutions were measured by HPLC.
as §1, with “C” for “B”, “into” for “into SGF (simulated gastric fluids, pH=1.8),”

[5] = Grinding stability (XRPD before and after grinding); settings: manually ground in a mortar for 5 minutes
Method: About 20 mg of Form C in the present disclosure and crystalline form I disclosed in WO2016120530A1 were manually ground in a mortar for 5 minutes. XRPD tests of the samples before and after grinding were carried out. The XRPD patterns of Form C were shown in FIG. 20 (top: XRPD pattern after grinding, bottom: XRPD pattern before grinding), and the XRPD patterns of crystalline form I were shown in FIG. 21 (top: XRPD pattern after grinding, bottom: XRPD pattern before grinding).

Row | SMILES | Time the form keeps stable ([1]; 25° C./60% RH) | Change of Solid Form ([1]; 25° C./60% RH (open)) | Time the form keeps stable ([1]; 40° C./75% RH) | Change of Solid Form ([1]; 40° C./75% RH (open)) | Particle size distribution pattern [2] | D10 [2] [μm] | D50 [2] [μm] | D90 [2] [μm] | MV (average particle size by volume) [2] [μm] | Hygroscopicity [3] | Weight gain under 80% RH [3] [%] | Solid Form after DVS [3] | Solubility ([4]; FaSSIF pH=6.5, 1 hour) [µg/mL] | Solubility ([4]; FaSSIF pH=6.5, 4 hours) [µg/mL] | Solubility ([4]; FeSSIF pH=5.0, 1 hour) [µg/mL] | Solubility ([4]; SGF pH=1.8, 1 hour) [µg/mL] | Solubility ([4]; SGF pH=1.8, 4 hours) [µg/mL] | solubility at 4 h ([4]; fed state simulated intestinal fluid (FeSSIF), pH 5, fessif, thermodynamic from solid, FeSSIF pH=5.0, 4 hours) [µg/mL] | Crystallinity after grinding [5] | Solubility ([4]; FeSSIF pH=5.0, 4 hours) [µg/mL]
1 | CC(O)c1cc(C(=O)N[C@@H](C)Cn2ccc(-c3ccc(C#N)c(Cl)c3)n2)n[nH]1 (single isomer, unassigned) [Form B] | at least 3 months | physically stable | at least 3 months | physically stable | unimodal and normal distribution | 1.20 | 2.73 | 5.49 | 3.12 | slightly hygroscopic | 0.93 | remain unchanged; also recorded: Form B | 3.0 (≈ 7.52 µM) | 0.5 (≈ 1.25 µM) | 408.1 (≈ 1020 µM) | 62.7 (≈ 157 µM) | 33.5 (≈ 84 µM) | 288 (≈ 722 µM) | – | –
2 | CC(O)c1cc(C(=O)N[C@@H](C)Cn2ccc(-c3ccc(C#N)c(Cl)c3)n2)n[nH]1 (single isomer, unassigned) [Form C] | at least 1 month | – | – | – | – | – | – | – | – | slightly hygroscopic | 1.60 | remain unchanged; also recorded: Form C | 39.0 (≈ 97.8 µM) | 35.5 (≈ 89 µM) | 469.6 (≈ 1180 µM) | – | – | – | remains good crystallinity after grinding | 163.1 (≈ 409 µM)
3 | CC(O)c1cc(C(=O)N[C@@H](C)Cn2ccc(-c3ccc(C#N)c(Cl)c3)n2)n[nH]1 (some centres unmarked) [Crystalline form I, reference compound] | – | – | – | – | bimodal distribution | 24.97 | 100.5 | 297.4 | 136.1 | hygroscopic | >2.37 | – | 1.0 (≈ 2.51 µM) | 0.1 (≈ 0.251 µM) | 183.1 (≈ 459 µM) | 14.0 (≈ 35.1 µM) | 9.9 (≈ 24.8 µM) | – | decreased significantly | 206.3 (≈ 517 µM)
